What was measured:
[1] = Cyclic voltammetry (CV) in dichloromethane; assay type: physicochemical; details: n-BuN4PF6 0.1 M, silver/silver chloride reference electrode, 100 mV/sec
Experimental: (3) Measurement of CV (Cyclic Voltammetry)
CV was measured using dichloromethane as a solvent, tetrabutylammonium hexafluorophosphate (n-BuN4PF6, 0.1 M) as a supporting salt, platinum wires as a working electrode and a counter electrode, and a silver/sliver chloride electrode as a reference electrode, and sweeping the electric potential at a rate of 100 mV/sec.

[2] = Solubility to chloroform (saturated chloroform solutions); assay type: physicochemical; details: mass percent concentration of saturated chloroform solution
Experimental: (1) Measurement of Solubility
Solubility was measured using chloroform as a solvent.

| first half-wave reduction potential [1] [V] | second half-wave reduction potential [1] [V] | Solubility to Chloroform [2] [w/w %] | SMILES |
| --- | --- | --- | --- |
| 0.15 | −0.14 | – | CCCCCCCCc1cc2c(cc(CCCCCCCC)c3cc(=C(C#N)C#N)sc32)c2sc(=C(C#N)C#N)cc12 [Compound 110] |
| 0.15 | −0.14 | 0.20 | CCCCCCCCCCCCc1cc2c(cc(CCCCCCCCCCCC)c3cc(=C(C#N)C#N)sc32)c2sc(=C(C#N)C#N)cc12 [Compound 112] |
| 0.15 | −0.14 | – | CCCCCCCCCCCCCCCCc1cc2c(cc(CCCCCCCCCCCCCCCC)c3cc(=C(C#N)C#N)sc32)c2sc(=C(C#N)C#N)cc12 [Compound 114] |
| 0.15 | −0.14 | 0.53 | CCCCC(CC)Cc1cc2c(cc(CC(CC)CCCC)c3cc(=C(C#N)C#N)sc32)c2sc(=C(C#N)C#N)cc12 (stereo not shown) [Compound 119] |
